{
  "source": "patent US11629155B2",
  "about": "“Small molecule antagonist compound TAC5 series having toll-like receptor 3/7/8/9 inhibitory function” (AJOU UNIVERSITY INDUSTRY-ACADEMIC COOPERATION FOUNDATION, priority 2018, dated 2023)",
  "tested_on": "MARC/lpr mice",
  "assay": "SLE mouse model (MARC/lpr mice)",
  "assay_type": "in vivo",
  "procedure": "QRT-PCR analysis was performed to detect the expression levels of specific genes in lymph nodes, spleen and kidney. Total RNA was isolated from lymph nodes, spleen and kidneys of 16-week-old mice using TRI reagent (Sigma-Aldrich, Co.). RNA was applied to qRT-PCR based on SYBR green (Enzo Life Sciences, Inc., Farmingdale, N.Y., USA). The following primers for the marker gene were used: mTLR7, 5′-ATGTGGACACGGAAGAGACAA-3′(SEQ ID NO: 1) and 5′-GGT AAG GGT AAG ATT GGT G-3′(SEQ ID NO: 2); mTLR9, 5′-ATGGTTCTCCGTCGAAGGACT-3′ (SEQ ID NO: 3) and 5′-GAG GCT TCA GCT CAC AGG G-3′(SEQ ID NO: 4); mIL-6, 5′-GAGGATACCACTCCCAACAGACC-3′(SEQ ID NO: 5) and 5′-AAGTGCATCATCGTTGTTCATACA-3′(SEQ ID NO: 6); mMyd88, 5′-CACCTGTGTCTGGTCCATTG-3′(SEQ ID NO: 7) and 5′-CTGTTGGACACCTGGAGACA-3′(SEQ ID NO: 8); mIL-17, 5′-GCT CCA GAA GGC CCT CAG A-3′ (SEQ ID NO: 9) and 5′-AGC TTT CCC TCC GCA TTG A-3′(SEQ ID NO: 10); mGAPDH, 5′-CTCAACACGGGAAACCTCAC-3′ (SEQ ID NO: 11) and 5′-CGCTCCACCAACTAAGAACG-3′(SEQ ID NO: 12) (Bioneer, Daejeon, Korea). Quantified individual RNA expression levels were normalized to GAPDH and expressed as RNA expression levels relative to the corresponding wild-type mice.\nThe therapeutic potential of TAC5-a on systemic autoimmunity was further determined by intraperitoneally injecting 10 nmol/g (daily dosage) of TAC5-a (dissolved in 1% dimethylsulfoxide [DMSO]) into MARC/lpr mice for 11 days. This inhibitor clearly influenced mouse lymphatic proliferation. […] The production of anti-dsDNA autoantibodies was kept low (FIG. 6B), and serum antinuclear antibodies (ANAs) were reduced by treatment with inhibitors (FIG. 6C). The detection of certain proteins, such as albumin, in the urine serves as a marker for a kidney pathology called glomerulonephritis (GN), which is caused by inflammation of the glomerulus. […] Then, the effect of TAC5-a on the relative expression behaviors of specific genes in lymph nodes, spleen and kidneys at the transcription level was confirmed.",
  "note": "“Also recorded” adds a separate entry of the source.",
  "data": [
    {"smiles": "Nc1cccc(COc2cccnc2N)c1", "note": "[TAC5-a, 3-((3-aminobenzyl)oxy)pyridin-2-amine]", "values": [
      {"measurement": "production of anti-dsDNA autoantibodies", "setting": "10 nmol/g daily i.p. for 11 days, FIG. 6B", "value": "kept low"},
      {"measurement": "serum antinuclear antibodies (ANAs)", "setting": "10 nmol/g daily i.p. for 11 days, FIG. 6C", "value": "reduced"},
      {"measurement": "content of urine albumin", "setting": "10 nmol/g daily i.p. for 11 days, FIG. 6D", "value": "significantly reduced"},
      {"measurement": "lymph node swelling, appearance evaluation or size decrease", "setting": "10 nmol/g daily intraperitoneally for 11 days, FIG. 6A", "value": "clearly observed; also recorded: significantly prevented"},
      {"measurement": "IL-6 mRNA level in lymph nodes (qRT-PCR)", "setting": "FIGS. 6E to 6G", "value": "significantly reduced"},
      {"measurement": "IL-17 mRNA level in lymph nodes (qRT-PCR)", "setting": "FIGS. 6E to 6G", "value": "significantly reduced"},
      {"measurement": "TLR7 mRNA level in lymph nodes (qRT-PCR)", "setting": "FIGS. 6E to 6G", "value": "significantly reduced"}
    ]}
  ]
}
